According to paper PMC10315472 (Frontiers in Microbiology, 2023):
Where two headings read alike, the source gives them in different places. Positions of bridges follow the written chain, without caps; N, C: chain ends. Residues, ends and D or L forms follow the SMILES beside them.

What was measured:
WT RBD [1] = target: T1, WT RBD (Severe acute respiratory syndrome coronavirus 2, UniProt P0DTC2); assay: biochemical; type: binding, SARS-CoV-2
WT RBD [2] = target: T1, WT RBD; assay: biochemical; type: binding, SARS-CoV-2; remark: listed apart in the source
[3] = covalently immobilized onto CM5 via amine groups

SMILES	Kd (WT RBD [1])	Kd (WT RBD [2])	koff (WT RBD [2])	kon (WT RBD [2])	stability on CM5 chip [3]
CC[C@H](C)[C@@H]1NC(=O)[C@H](CCCCN)NC(=O)CNC(=O)[C@H](CCCNC(=N)N)NC(=O)[C@@H]2CSSC[C@H](N)C(=O)N3CCC[C@H]3C(=O)N[C@@H](Cc3c[nH]c4ccccc34)C(=O)N[C@@H](CC(N)=O)C(=O)N[C@@H](C)C(=O)N[C@@H](Cc3ccc(O)cc3)C(=O)N[C@@H](CCC(=O)O)C(=O)N[C@H]3CSSC[C@H](NC(=O)[C@H]([C@@H](C)O)NC(=O)[C@H](CCC(N)=O)NC(=O)[C@H](CCCNC(=N)N)NC1=O)C(=O)N[C@@H](Cc1c[nH]cn1)C(=O)N[C@H](C(=O)N[C@@H](Cc1ccc(O)cc1)C(=O)O)CSSC[C@H](NC(=O)[C@H](Cc1c[nH]cn1)NC(=O)[C@H](CCCNC(=N)N)NC(=O)[C@H](CC(=O)O)NC3=O)C(=O)N[C@@H](C(C)C)C(=O)N[C@@H](CO)C(=O)N[C@@H](CCCCN)C(=O)NCC(=O)N[C@@H](Cc1ccc(O)cc1)C(=O)N[C@@H]([C@@H](C)O)C(=O)NCC(=O)NCC(=O)N[C@@H](CC(N)=O)C(=O)N2 [(ΔGFG)AMSIN] (H-CPWNAYECDRHCVSKGYTGGNCRGKIRQTCHCY-OH; disulfide 1-22, 8-30, 12-32)	119 nM				
CC[C@H](C)[C@@H]1NC(=O)[C@H](CCCCN)NC(=O)CNC(=O)[C@H](CCCNC(=N)N)NC(=O)[C@@H]2CSSC[C@H](NC(=O)CNC(=O)[C@H](Cc3ccccc3)NC(=O)CN)C(=O)N3CCC[C@H]3C(=O)N[C@@H](Cc3c[nH]c4ccccc34)C(=O)N[C@@H](CC(N)=O)C(=O)N[C@@H](C)C(=O)N[C@@H](Cc3ccc(O)cc3)C(=O)N[C@@H](CCC(=O)O)C(=O)N[C@H]3CSSC[C@H](NC(=O)[C@H]([C@@H](C)O)NC(=O)[C@H](CCC(N)=O)NC(=O)[C@H](CCCNC(=N)N)NC1=O)C(=O)N[C@@H](Cc1c[nH]cn1)C(=O)N[C@H](C(=O)N[C@@H](Cc1ccc(O)cc1)C(=O)O)CSSC[C@H](NC(=O)[C@H](Cc1c[nH]cn1)NC(=O)[C@H](CCCNC(=N)N)NC(=O)[C@H](CC(=O)O)NC3=O)C(=O)N[C@@H](C(C)C)C(=O)N[C@@H](CO)C(=O)N[C@@H](CCCCN)C(=O)NCC(=O)N[C@@H](Cc1ccc(O)cc1)C(=O)N[C@@H]([C@@H](C)O)C(=O)NCC(=O)NCC(=O)N[C@@H](CC(N)=O)C(=O)N2 [AMSIN] (H-GFGCPWNAYECDRHCVSKGYTGGNCRGKIRQTCHCY-OH; disulfide 4-25, 11-33, 15-35)		193 nM	0.00219 s⁻¹	11300 M⁻¹ s⁻¹	rather stable
CC[C@H](C)[C@@H]1NC(=O)CNC(=O)[C@H](CCCCN)NC(=O)[C@@H]2CSSC[C@@H](C(=O)N[C@@H](Cc3ccc(O)cc3)C(=O)O)NC(=O)[C@H](CCCCN)NC(=O)[C@@H]3CSSC[C@H](NC(=O)[C@H](CCCNC(=N)N)NC(=O)[C@H](CO)NC(=O)[C@H](CC(=O)O)NC(=O)[C@H](CC(N)=O)NC(=O)CNC(=O)CNC(=O)[C@H](Cc4ccccc4)NC(=O)[C@H]([C@@H](C)CC)NC(=O)[C@H]([C@@H](C)O)NC(=O)[C@@H](NC(=O)CNC(=O)[C@H](Cc4c[nH]c5ccccc45)NC(=O)CN)CSSC[C@H](NC(=O)[C@H](Cc4ccc(O)cc4)NC(=O)CNC(=O)CNC(=O)[C@H](CCCNC(=N)N)NC(=O)[C@H](Cc4ccc(O)cc4)NC(=O)CNC(=O)[C@H](CCCNC(=N)N)NC1=O)C(=O)N[C@@H](CCCCN)C(=O)N[C@@H](CC(C)C)C(=O)NCC(=O)NCC(=O)N[C@@H]([C@@H](C)CC)C(=O)N3)C(=O)N[C@@H](Cc1c[nH]cn1)C(=O)N[C@@H](CCCNC(=N)N)C(=O)N[C@@H](Cc1c[nH]cn1)C(=O)N2 [Emorisin] (H-GWGCTIFGGNDSRCHRHCKGIRGYRGGYCKLGGICKCY-OH; disulfide 4-29, 14-35, 18-37)		7.6 nM	0.045 s⁻¹	5.92e+06 M⁻¹ s⁻¹	
